Results on three compounds are retold here after US7547763B2, “Sequences of an Ih ion channel and use thereof” (Forschungszentrum Julich GmbH, priority 1998, dated 2009).

Experiment [1] relates to SPIH channel. In words: Blockade of the SPIH channel by extracellular Cs+ on outside-out membrane patches. The class given is cell-based, Strongylocentrotus purpuratus. The procedure: (§1) cDNA coding the SPIH polypeptide was transiently expressed in HEK293 cells, as described earlier (Baumann et al, 1994). SPIH-controlled currents were recorded with the patch-clamp method in the whole-cell configuration and cell-free membrane patches. The composition of various bath and pipette solutions is indicated in the legends of the figures (see below). The channels were activated by stepping the membrane voltage from +10 mV to various negative voltage values. Leakage currents were subtracted using a P/8 protocol. The voltage dependence of the probability that the channel is open was determined from tail currents at +10 mV. The blockade of the SPIH channel by Cs2+ was analyzed with outside-out membrane patches in the presence of 1 mM cAPM in a pipette solution. The solutions in the bath contained 0.03 to 10 mM CsCl. Relative ion permeabilities were calculated from the respective shift of Vrev, which was measured on cell-free inside-out membrane patches, when 100 mM K^+ in the bath had been replaced by Na^+, Li^+, Rb^+ or Cs^+.

Experiment [2] deals with SPIH channel. In words: Whole-cell patch-clamp of SPIH currents in transfected HEK293 cells, cyclic nucleotides or caged derivatives in the pipette. The class given is cell-based, Strongylocentrotus purpuratus. The procedure:
as §1, with “The voltage dependence of the probability that the channel is open was determined from tail currents at +10 mV. The blockade of the SPIH channel by Cs2+ was analyzed with outside-out membrane patches in the presence of 1 mM cAPM in a pipette solution.” left out, “Cs^+. […] The voltage-step protocol is the same as in FIG. 2A. The bath contained (mM): 135 NaCl, 5 KCl, 1.8 CaCl2, 2.8 MgCl2 and 5 Hepes-NaOH at pH 7.4; the pipette solution contained […]” for “Cs^+.”
(In general: Patch clamp records ionic current or voltage across a cell membrane.)

Experiment [3] concerns the target T1, SPIH channel (Strongylocentrotus purpuratus, UniProt O76977).
T1 sequence (O76977 1-767): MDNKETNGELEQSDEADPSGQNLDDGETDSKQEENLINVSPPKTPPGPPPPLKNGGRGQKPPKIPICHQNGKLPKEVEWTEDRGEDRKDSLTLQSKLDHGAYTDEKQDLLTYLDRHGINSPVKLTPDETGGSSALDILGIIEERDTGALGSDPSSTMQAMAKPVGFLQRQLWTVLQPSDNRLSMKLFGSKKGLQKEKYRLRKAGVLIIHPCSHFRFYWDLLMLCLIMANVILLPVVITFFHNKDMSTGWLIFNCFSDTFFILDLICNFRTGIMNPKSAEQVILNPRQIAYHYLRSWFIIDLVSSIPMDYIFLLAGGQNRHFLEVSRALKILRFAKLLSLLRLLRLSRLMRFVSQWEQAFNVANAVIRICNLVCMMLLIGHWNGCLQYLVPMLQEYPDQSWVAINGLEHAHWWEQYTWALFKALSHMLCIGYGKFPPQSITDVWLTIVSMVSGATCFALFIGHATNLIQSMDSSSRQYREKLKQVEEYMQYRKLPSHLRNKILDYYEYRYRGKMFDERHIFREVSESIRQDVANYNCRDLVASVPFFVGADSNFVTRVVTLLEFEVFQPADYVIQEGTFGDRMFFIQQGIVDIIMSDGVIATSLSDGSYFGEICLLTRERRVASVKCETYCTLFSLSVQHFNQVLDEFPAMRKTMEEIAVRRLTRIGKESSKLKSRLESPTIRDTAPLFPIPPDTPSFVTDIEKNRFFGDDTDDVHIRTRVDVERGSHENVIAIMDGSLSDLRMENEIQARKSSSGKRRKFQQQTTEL
In words: Patch-clamp of SPIH currents on excised inside-out membrane patches of transfected HEK293 cells, modulation by cyclic nucleotides. The class given is cell-based. Here is the method:
as §1

Consider `[Cs+]` [Cs^+], for which the effect on currents result in the experiment with SPIH channel [1] (10 mM Cs+ in the bath) is listed as “inward currents disappeared completely”. For the same compound, on SPIH channel [1] (at −70 mV, 1 mM cAMP in pipette, Hill fit, read-out: inhibitory constant Ki for block of standardized current I/Imax), the Ki was found to be 245 µM.
As for `Nc1ncnc2c1ncn2[C@@H]1O[C@@H]2COP(=O)(O)O[C@H]2[C@H]1O` [cAMP], the “V1/2 of voltage dependence of Po” value in the experiment with SPIH channel [2] (whole-cell tail currents, 1 mM cAMP in pipette, Boltzmann fit) is reported as −50.8 mV; on SPIH channel [3] (inside-out-patch tail currents, 1 mM cAMP in bath, Boltzmann fit), −84.7 mV. The “enhancement of the amplitudes of the voltage-activated currents” value on SPIH channel [3] (1 mM cAMP, excised membrane patches) is “up to 20 fold”. In addition, on SPIH channel [3] (inside-out patches, fit of Hill equation, mean of 10 experiments), the “Hill coefficient n of the cAMP dependence of the SPIH current” value is reported as 1.05.
With `Nc1nc2c(ncn2[C@@H]2O[C@@H]3COP(=O)(O)O[C@H]3[C@H]2O)c(=O)[nH]1` [cGMP], the “effect on SPIH-induced whole-cell currents” value in the experiment on SPIH channel [2] (1 mM in the pipette) was “also changed the SPIH-induced currents”. For the same compound, the “effect on amplitude of the SPIH currents” value on SPIH channel [3] (cGMP concentrations of up to 1 mM, excised membrane patches) is on record as “did not change the amplitude of the SPIH currents”.
